“And” between values parts separate entries of the source, which are not always exact repeats. Equal entries are not always repeated. Where two headings read alike, the source gives them in different places.
Columns and labels:
Recombinant TDO = target: T1, Recombinant TDO (Homo sapiens, UniProt P48775); experiment: Biochemical assay for TDO (NFK GreenScreen); settings: 50 nM TDO, 200 μM L-tryptophan
T1 construct: Recombinant TDO (Seegers, N., et al.) and all other assay components were diluted in TDO reaction buffer
T1 sequence (P48775 whole entry): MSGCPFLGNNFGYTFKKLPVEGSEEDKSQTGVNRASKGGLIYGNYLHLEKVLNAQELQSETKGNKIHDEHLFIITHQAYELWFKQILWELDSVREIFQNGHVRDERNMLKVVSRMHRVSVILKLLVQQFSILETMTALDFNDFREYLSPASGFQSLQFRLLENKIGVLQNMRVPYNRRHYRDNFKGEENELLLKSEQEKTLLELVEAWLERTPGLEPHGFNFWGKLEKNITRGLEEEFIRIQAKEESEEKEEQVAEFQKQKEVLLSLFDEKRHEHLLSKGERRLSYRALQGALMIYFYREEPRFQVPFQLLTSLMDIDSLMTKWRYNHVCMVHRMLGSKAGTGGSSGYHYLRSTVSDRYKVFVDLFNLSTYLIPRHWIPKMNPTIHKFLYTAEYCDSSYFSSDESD
Description: Biochemical Assay for TDO
The NFK GreenScreen™ assay technology was also used to determine the inhibitory activity of compounds on TDO (Seegers, N., et al., J. Biol. Screen. 19: 1266; 2014). Compounds were serially diluted in DMSO and finally in TDO reaction buffer, consisting of 100 mM NaH2PO4, pH 7.0, supplemented with 0.02% Tween-20 (cat. No. P7949; Sigma Aldrich). Recombinant TDO (Seegers, N., et al.) and all other assay components were diluted in TDO reaction buffer. 10 μl of compound solution and 20 μl of enzyme solution supplemented with 200 μM ascorbic acid were combined in the well of a black 384-well plate (cat. no. 3573; Corning, Corning, N.Y., USA), and incubated for 60 min at room temperature. Subsequently, 10 μl of 0.8 mM of the substrate L-tryptophan was added, i.e., the final concentration of L-tryptophan was 200 μM. The DMSO concentration in the assay was 0.3%. The concentration of TDO was 50 nM. Incubation was continued for 15 min at room temperature. Then, 10 μl of NFK Green™ (NTRC, Oss, The Netherlands) was added, the plate was sealed, and the reaction was developed for 3 hours at 37° C. To determine the production of N-formyl kynurenine (NFK), the seal was removed and fluorescence was read on an EnVision multimode reader (Perkin Elmer, Waltham, Mass., USA). IC50 were calculated using XLfit™ software (ID Business Solutions, Ltd., Surrey, U.K.).

CYP3A4 = CYP3A4 (Homo sapiens, UniProt P08684); experiment: P450-Glo CYP3A4 luciferin isopropylacetal (Luc-IP) assay
CYP3A4, sequence (P08684 whole entry): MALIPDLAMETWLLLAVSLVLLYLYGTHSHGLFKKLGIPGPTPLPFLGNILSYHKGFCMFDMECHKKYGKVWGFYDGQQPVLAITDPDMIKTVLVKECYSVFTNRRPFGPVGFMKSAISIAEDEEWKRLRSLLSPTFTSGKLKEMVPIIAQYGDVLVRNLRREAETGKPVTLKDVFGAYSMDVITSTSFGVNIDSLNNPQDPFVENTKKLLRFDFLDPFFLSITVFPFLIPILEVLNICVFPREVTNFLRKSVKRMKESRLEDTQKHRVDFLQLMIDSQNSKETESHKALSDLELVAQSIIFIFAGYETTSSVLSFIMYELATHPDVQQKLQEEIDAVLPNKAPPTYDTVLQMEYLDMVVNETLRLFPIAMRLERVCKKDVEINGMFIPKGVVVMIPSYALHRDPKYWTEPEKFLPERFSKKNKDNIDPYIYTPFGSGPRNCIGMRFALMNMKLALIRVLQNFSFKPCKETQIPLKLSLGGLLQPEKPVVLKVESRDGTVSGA
Description: To determine the inhibitory potency of compounds on CYP3A4 enzyme, the P450-Glo CYP3A4 luciferin isopropylacetal (Luc-IP) assay was used (Promega, Madison, Wis., USA, Cat. No. V9920). The assay makes use of a luminogenic isopropylacetal (IPA) substrate that is a derivative from beetle luciferin, a substrate of luciferase enzymes. The IPA substrate is converted by CYP3A4 to luciferin, which in turn reacts with luciferase to produce an amount of light that is directly proportional to the activity of CYP3A4. Compounds were serially diluted in DMSO and finally in 400 mM K2HPO4, pH 7.4. 5 μl of compound solution and 5 μl of CYP3A4/substrate solution were combined in the well of a white 384-well Optiplate (Perkin Elmer). The DMSO concentration in the assay was 0.1%. After incubation for 10 minutes at room temperature in the dark, 10 μl of NADPH regeneration system was added and incubation was continued for 10 min. Then, 20 μl of Luciferin Detection Reagent was added to stop the reaction, and incubation was continued for another 20 min. Luminescence was measured on an Envision multimode reader and IC50 values were calculated using XLfit™. […] Instead of in a 96-well plate, the assay was performed in 384-well white Perkin Elmer Optiplate (cat. no. 6007290).

CYP2D6 = CYP2D6 (Homo sapiens, UniProt P10635); experiment: P450-Glo CYP2D6 Luc-IP assay
CYP2D6, sequence (P10635 whole entry): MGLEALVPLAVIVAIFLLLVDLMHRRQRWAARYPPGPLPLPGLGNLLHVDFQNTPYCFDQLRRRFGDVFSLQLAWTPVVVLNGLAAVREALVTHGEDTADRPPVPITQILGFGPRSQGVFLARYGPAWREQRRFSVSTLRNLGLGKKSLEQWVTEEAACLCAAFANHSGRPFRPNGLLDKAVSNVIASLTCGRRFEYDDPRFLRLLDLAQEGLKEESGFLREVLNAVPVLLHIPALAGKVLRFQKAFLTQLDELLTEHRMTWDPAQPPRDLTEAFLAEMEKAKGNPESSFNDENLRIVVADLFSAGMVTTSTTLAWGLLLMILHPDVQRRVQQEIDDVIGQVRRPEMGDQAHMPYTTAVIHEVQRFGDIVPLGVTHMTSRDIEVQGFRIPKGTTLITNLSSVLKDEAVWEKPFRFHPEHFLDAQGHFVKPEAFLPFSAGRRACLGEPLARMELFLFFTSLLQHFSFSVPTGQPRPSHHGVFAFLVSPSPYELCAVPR

[1] = target: T2, TDO in SW48 colorectal carcinoma cells (Homo sapiens, UniProt P48775); experiment: Cell-based assay for TDO in SW48 colorectal carcinoma cells (NFK GreenScreen); settings: 18 hours with L-tryptophan
T2 construct: Endogenous expression of TDO has been determined in a variety of cancer cell lines; host or cells: SW48 colorectal carcinoma cells
T2 sequence (P48775 whole entry): as the sequence (P48775 whole entry) above
Description: The biological activity of TDO inhibitors can be measured by applying above detection methods to cells that are treated with test compound. Endogenous expression of TDO has been determined in a variety of cancer cell lines (Pilotte et al.; Seegers, et al.), or TDO can be expressed in cells that lack endogenous TDO by transfection of an expression vector containing TDO cDNA. […] A preferred assay is the cell-based NFK GreenScreen™ assay (Seegers et al, supra), which measures the cellular inhibitory activity of compounds on TDO. […] No. V9920). Cell-Based Assay for TDO The NFK GreenScreen™ assay technology was also used to determine the inhibitory activity of compounds on TDO in SW48 colorectal carcinoma cells (Seegers, N., et al., J. Biol. Screen. 19: 1266; 2014). […] Compounds were dissolved in DMSO and diluted in RPMI 1640. Final DMSO concentration in the assay was 0.4% (v/v). Eight thousand cells per well in 40 μl were seeded in a black 384-well tissue plate (cat. No. 781086; […] To determine NFK levels, 12 μl NFK Green™ (NTRC, Oss, The Netherlands) was added to each well, and the plate was sealed and incubated for 4 hours at 37° C. Fluorescence was measured on an EnVision multimode reader (Perkin Elmer, Waltham, Mass., USA).

Row | Compound | IC50 (Recombinant TDO) [nM] | IC50 (CYP3A4) [nM] | IC50 (CYP2D6) [nM] | IC50 ([1]; read-out: IC50 on TDO in cells) | IC50 ([1]; IC50 on TDO in cells)
1 | C[C@H](CO)NC(=O)c1ccc(-c2c[nH]c3cc(F)ccc23)cc1 [Example 14, 4-(6-fluoro-1H-indol-3-yl)-N-[(1R)-2-hydroxy-1-methyl-ethyl]benzamide] | < 1000 | > 10000 | 5000 to 10000 | – | ≤ 500 nM and 200 to 500 nM
2 | C[C@@H](CO)NC(=O)c1ccc(-c2c[nH]c3cc(F)ccc23)cc1 [Example 15, 4-(6-fluoro-1H-indol-3-yl)-N-[(1S)-2-hydroxy-1-methyl-ethyl]benzamide] | < 1000 | > 10000 | > 10000 | – | ≤ 200 nM
3 | COC[C@@H](C)NC(=O)c1ccc(-c2c[nH]c3cc(F)ccc23)cc1 [Example 17, 4-(6-Fluoro-1H-indol-3-yl)-N-[(1R)-2-methoxy-1-methyl-ethyl]benzamide] | < 1000 | > 10000 | > 10000 | ≤ 500 nM and 200 to 500 nM | –
4 | O=C(N[C@@H]1CN2CCC1CC2)c1ccc(-c2c[nH]c3cc(F)ccc23)cc1 [Example 20, 4-(6-Fluoro-1H-indol-3-yl)-N-[(3S)-quinuclidin-3-yl]benzamide] | < 1000 | > 10000 | > 10000 | ≤ 200 nM | –
5 | CC(O)C(C)NC(=O)c1ccc(-c2c[nH]c3cc(F)ccc23)cc1 (stereo not shown) [Example 21, 4-(6-Fluoro-1H-indol-3-yl)-N-(2-hydroxy-1-methyl-propyl)benzamide] | < 1000 | > 10000 | > 10000 | ≤ 200 nM | –
6 | CN1CCC(NC(=O)c2ccc(-c3c[nH]c4cc(F)ccc34)cc2)CC1 [Example 24, 4-(6-Fluoro-1H-indol-3-yl)-N-(1-methyl-4-piperidyl)benzamide] | < 1000 | > 10000 | > 10000 | ≤ 200 nM | –
7 | CN1CCCC(NC(=O)c2ccc(-c3c[nH]c4cc(F)ccc34)cc2)C1 (stereo not shown) [Example 25, 4-(6-Fluoro-1H-indol-3-yl)-N-(1-methyl-3-piperidyl)benzamide] | < 1000 | > 10000 | > 10000 | ≤ 200 nM | –
8 | CSCC(=O)Nc1ccc(-c2c[nH]c3cc(F)ccc23)cc1 [Example 31, N-[4-(6-fluoro-1H-indol-3-yl)phenyl]-2-methylsulfanyl-acetamide] | < 1000 | > 10000 | > 10000 | ≤ 500 nM and 200 to 500 nM | –
9 | O=C(NC[C@@H]1CCCNC1)c1ccc(-c2c[nH]c3cc(F)ccc23)cc1 [Example 42, 4-(6-Fluoro-1H-indol-3-yl)-N-[[(3R)-3-piperidyl]methyl]benzamide] | < 1000 | 5000 to 10000 | > 10000 | ≤ 500 nM and 200 to 500 nM | –
10 | O=C(NC1CCOCC1)c1ccc(-c2c[nH]c3cc(F)ccc23)cc1 [Example 44, 4-(6-Fluoro-1H-indol-3-yl)-N-tetrahydropyran-4-yl-benzamide] | < 1000 | > 10000 | > 10000 | ≤ 500 nM and 200 to 500 nM | –
11 | C[C@H](NC(=O)c1ccc(-c2c[nH]c3cc(F)ccc23)cc1)c1nnc2ccccn12 [Example 45, 4-(6-Fluoro-1H-indol-3-yl)-N-[(1S)-1-([1,2,4]triazolo[4,3-a]pyridin-3-yl)ethyl]benzamide] | 1000 to 5000 | 5000 to 10000 | > 10000 | ≤ 500 nM and 200 to 500 nM | –
12 | CN1C2CCC1CC(NC(=O)c1ccc(-c3c[nH]c4cc(F)ccc34)cc1)C2 (stereo not shown) [Example 47, 4-(6-Fluoro-1H-indol-3-yl)-N-(8-methyl-8-azabicyclo[3.2.1]octan-3-yl)benzamide] | < 1000 | > 10000 | > 10000 | ≤ 500 nM and 200 to 500 nM | –
13 | CC(C)[C@H](C)NC(=O)c1ccc(-c2c[nH]c3cc(F)ccc23)cc1 [Example 49, N-[(1S)-1,2-dimethylpropyl]-4-(6-fluoro-1H-indol-3-yl)benzamide] | < 1000 | > 10000 | > 10000 | ≤ 500 nM and 200 to 500 nM | –
14 | C[C@H](CO)NC(=O)c1ccc(-c2c[nH]c3cc(F)ccc23)cc1Cl [Example 51, 2-Chloro-4-(6-fluoro-1H-indol-3-yl)-N-[(1R)-2-hydroxy-1-methyl-ethyl]benzamide] | < 1000 | > 10000 | > 10000 | ≤ 500 nM and 200 to 500 nM | –

Further lines, with some results ahead:

Row | IC50 (Recombinant TDO) [nM] | IC50 (CYP3A4) [nM] | IC50 (CYP2D6) [nM] | IC50 ([1]; read-out: IC50 on TDO in cells) | Compound | IC50 ([1]; IC50 on TDO in cells)
15 | < 1000 | > 10000 | > 10000 | ≤ 500 nM and 200 to 500 nM | CC(C)(O)CNC(=O)c1ccc(-c2c[nH]c3cc(F)ccc23)cc1 [Example 13, 4-(6-Fluoro-1H-indol-3-yl)-N-(2-hydroxy-2-methyl-propyl)benzamide] | –
16 | 1000 to 5000 | 5000 to 10000 | 5000 to 10000 | ≤ 500 nM and 200 to 500 nM | O=C(N[C@@H](CO)c1ccccc1)c1ccc(-c2c[nH]c3cc(F)ccc23)cc1 [Example 16, 4-(6-fluoro-1H-indol-3-yl)-N-[(1R)-2-hydroxy-1-phenyl-ethyl]benzamide] | –
17 | < 1000 | > 10000 | > 10000 | ≤ 200 nM | O=C(N[C@H]1CCCNC1)c1ccc(-c2c[nH]c3cc(F)ccc23)cc1 [Example 19, 4-(6-Fluoro-1H-indol-3-yl)-N-[(3S)-3-piperidyl]benzamide] | –
18 | < 1000 | 5000 to 10000 | > 10000 | ≤ 200 nM | CCN(CC)CC(C)NC(=O)c1ccc(-c2c[nH]c3cc(F)ccc23)cc1 (stereo not shown) [Example 23, N-[2-(diethylamino)-1-methyl-ethyl]-4-(6-fluoro-1H-indol-3-yl)benzamide] | –
19 | < 1000 | > 10000 | > 10000 | ≤ 500 nM and 200 to 500 nM | O=C(NC1COC1)c1ccc(-c2c[nH]c3cc(F)ccc23)cc1 [Example 26, 4-(6-Fluoro-1H-indol-3-yl)-N-(oxetan-3-yl)benzamide] | –
20 | < 1000 | > 10000 | > 10000 | ≤ 500 nM and 200 to 500 nM | COCC(=O)Nc1ccc(-c2c[nH]c3cc(F)ccc23)cc1 [Example 27, N-[4-(6-fluoro-1H-indol-3-yl)phenyl]-2-methoxy-acetamide] | –
21 | < 1000 | > 10000 | > 10000 | ≤ 500 nM and 200 to 500 nM | O=C(N[C@@H]1CCCNC1)c1ccc(-c2c[nH]c3cc(F)ccc23)cc1 [Example 36, 4-(6-Fluoro-1H-indol-3-yl)-N-[(3R)-3-piperidyl]benzamide] | –
22 | < 1000 | 5000 to 10000 | > 10000 | ≤ 500 nM and 200 to 500 nM | CO[C@H]1CNCC[C@H]1NC(=O)c1ccc(-c2c[nH]c3cc(F)ccc23)cc1 [Example 43, 4-(6-Fluoro-1H-indol-3-yl)-N-[(3S,4R)-3-methoxy-4-piperidyl]benzamide] | –
23 | < 1000 | 5000 to 10000 | > 10000 | ≤ 500 nM and 200 to 500 nM | O=C(NCCN1CCCCC1)c1ccc(-c2c[nH]c3cc(F)ccc23)cc1 [Example 46, 4-(6-Fluoro-1H-indol-3-yl)-N-[2-(1-piperidyl)ethyl]benzamide] | –
24 | < 1000 | > 10000 | > 10000 | ≤ 500 nM and 200 to 500 nM | CC(CO)(CO)NC(=O)c1ccc(-c2c[nH]c3cc(F)ccc23)cc1 [Example 48, 4-(6-Fluoro-1H-indol-3-yl)-N-[2-hydroxy-1-(hydroxymethyl)-1-methyl-ethyl]benzamide] | –
25 | < 1000 | > 10000 | > 10000 | ≤ 500 nM and 200 to 500 nM | O=C(N[C@@H]1CCCC[C@H]1O)c1ccc(-c2c[nH]c3cc(F)ccc23)cc1 [Example 50, 4-(6-Fluoro-1H-indol-3-yl)-N-[(1R,2R)-2-hydroxycyclohexyl]benzamide] | –

Source: US10689343B2, “Inhibitors of tryptophan 2,3-dioxygenase” (NETHERLANDS TRANSLATIONAL RESEARCH CENTER B.V., priority 2016, dated 2020)
